Experimental data reported in US20230271953A1, “Novel compounds for treatment of diseases related to DUX4 expression” (Facio Intellectual Property B.V., priority 2019, published 2023).

Each compound was assayed on DUX4 (assay: DUX4 repression assay in primary FSHD cells (protocol of Example 2 of WO2019/115711)). Conditions: incubated 72 hours, Table 2.3 (additional results), binned.
Type: cell-based, human
Protocol: The DUX4 repression of compounds of general formula (I) was assayed following a known protocol (the protocol of Example 2 of WO2019/115711). Several compounds were incubated with primary FSHD cells for 72 hours. Results are shown in Table 2.2, showing DUX4 Count % inhibition.

SMILES | DUX4 Count % inhibition
OC1CN(c2ccc3nc(-c4ccc(F)cc4)n(-c4ccncc4)c3n2)C1 [Compound 98, 1-[2-(4-fluorophenyl)-3-(pyridin-4-yl)-3H-imidazo[4,5-b]pyridin-5-yl]azetidin-3-ol] | fall outside of the bins
C[C@@H]1CNCCN1c1ccc2nc(-c3cccc(C#N)c3)n(-c3ccncc3)c2n1 [Compound 188-R, 3-{5-[(2R)-2-methylpiperazin-1-yl]-3-(pyridin-4-yl)-3H-imidazo[4,5-b]pyridin-2-yl}benzonitrile] | fall outside of the bins
Fc1ccc(-c2nc3ccc(N4CC(N5CCCC5)C4)nc3n2-c2ccncc2)cc1 [Compound 106, 4-[2-(4-fluorophenyl)-5-[3-(pyrrolidin-1-yl)azetidin-1-yl]-3H-imidazo[4,5-b]pyridin-3-yl]pyridine] | fall outside of the bins
